Test results taken from the OligoGym collection.
“And” between values parts separate entries of the source, which are not always exact repeats. Identical values can stand only once. After the bases stand the sugars from the 5' end (letter, count) and the backbone: PS all phosphorothioate, else s phosphorothioate and o phosphodiester by linkage. Methylation of C is not given here. e = 2'-O-(2-methoxyethyl) (MOE); k = constrained ethyl (cEt); d = 2'-deoxy (DNA); m = 2'-O-methyl

Molecular target: HSD17B13
Settings: ASO, HepaRG

Sequence	target mRNA inhibition (1 µM) [%]	further results
CTTGACAATGGTTGCC (sugars k3 d10 k3, PS)	58	–
AATAGCCAGTACAGTT (sugars kkdddddddddkekek, PS)	36	–
AATTATACTTTTCCGT (sugars k3 d10 k3, PS)	66	–
CTGTGGCATGGCTACA (sugars k3 d10 k3, PS)	66	–
TATTAAGTACTGTGAG (sugars k3 d10 k3, PS)	0	–
TGTCCCAGCATTATTC (sugars k3 d10 k3, PS)	31	–
GATTAGTTAACCTTTT (sugars k3 d10 k3, PS)	58	–
AAAAUAGAGTCGGTCA (sugars k3 d1 m1 d8 k3, PS)	62	–
CAAGTTTGTTCATAGT (sugars k3 d10 k3, PS)	78	–
GGATAAGAAGAGAGCT (sugars k3 d10 k3, PS)	46	–
CTCAGAGTTCAGGCAA (sugars k3 d10 k3, PS)	67	–
AGTCTACCACATACGC (sugars k3 d10 k3, PS)	65	–
GTTATTCTCTTGACAA (sugars k3 d10 k3, PS)	42	–
GTATCTTATAAGACTA (sugars k3 d10 k3, PS)	81	target mRNA inhibition (0.02 µM): 50%; target mRNA inhibition (0.078 µM): 61%; target mRNA inhibition (0.313 µM): 68%; target mRNA inhibition (1.25 µM): 87%; target mRNA inhibition (5 µM): 95%
CAGAAGGATTTCTAGG (sugars k3 d10 k3, PS)	43	–
CAGTTATTAGAAGTCA (sugars k3 d10 k3, PS)	85	target mRNA inhibition (0.02 µM): 0%; target mRNA inhibition (0.078 µM): 0%; target mRNA inhibition (0.313 µM): 0%; target mRNA inhibition (1.25 µM): 56%; target mRNA inhibition (5 µM): 88%
CTCCGTTATAAGTTTC (sugars k3 d10 k3, PS)	59	–
TAAGATGTCCAGGCAT (sugars k3 d10 k3, PS)	17	–
CAATCTAGCAACCTCT (sugars k3 d10 k3, PS)	51	–
CTGAAATTGATACACC (sugars kkdddddddddkekek, PS)	45	–
ACTTGAACAGTCTTAA (sugars k3 d1 m1 d8 k3, PS)	29	–
CATATGGTGTACACTG (sugars k3 d10 k3, PS)	15	–
TCTTGACAATGGTTGC (sugars k3 d1 m1 d8 k3, PS)	67	target mRNA inhibition (0.02 µM): 25%; target mRNA inhibition (0.078 µM): 16%; target mRNA inhibition (0.313 µM): 39%; target mRNA inhibition (1.25 µM): 60%; target mRNA inhibition (5 µM): 87%
TGTTGATATTCTGTGG (sugars k3 d9 k3 e1, PS)	64	–
ACCCATTCTAACTTGA (sugars k3 d10 k3, PS)	0	–

Sequence	target mRNA inhibition (1 µM) [%]	further results
TCTTGACAATGGTTGA (sugars k3 d10 k3, PS)	75	–
TGCATAAGAGATGAGT (sugars k3 d10 k3, PS)	19	–
TTCTATCAACCTGCAC (sugars k3 d10 k3, PS)	62	–
CTCCAAGTAGGAGTAG (sugars k3 d10 k3, PS)	5	–
TCTTAGCTGTGCACTC (sugars k3 d9 k3 e1, PS)	52	–
TCTAAAGTGCTGGTTG (sugars k3 d10 k3, PS)	34	–
GAACCAATATGCTCTG (sugars k3 d10 k3, PS)	61	–
CTAGGAGATATAACAT (sugars k3 d10 k3, PS)	40	–
AGATGTACACTGACAA (sugars k3 d10 k3, PS)	66	–
CTTTAGCTTAAACTCC (sugars k3 d10 k3, PS)	69	–
CCCACAGAACCAATAT (sugars k3 d10 k3, PS)	16	–
TGCTAAAAGCTCACCA (sugars k3 d10 k3, PS)	49	–
AGTTAATAGGACTAAA (sugars k3 d10 k3, PS)	13	–
AAATTGTCTAAACATC (sugars k3 d10 k3, PS)	24	–
ATGAGGTTTTGATACC (sugars k3 d9 k3 e1, PS)	20	–
TATTATGTGATTGAGT (sugars k3 d10 k3, PS)	86	target mRNA inhibition (0.02 µM): 60% and 50%; target mRNA inhibition (0.078 µM): 69%; target mRNA inhibition (0.313 µM): 68%; target mRNA inhibition (1.25 µM): 76%
TATATACTAGGATTAG (sugars k3 d10 k3, PS)	10	–
AGTGCTTAGTTCATTG (sugars k3 d10 k3, PS)	84	target mRNA inhibition (0.02 µM): 0%; target mRNA inhibition (0.078 µM): 0%; target mRNA inhibition (0.313 µM): 31%; target mRNA inhibition (1.25 µM): 58%; target mRNA inhibition (5 µM): 84%
CCCAGCATTATTCACC (sugars k3 d10 k3, PS)	19	–
TAATACATTAGCAAGC (sugars k3 d9 k3 e1, PS)	35	–
AGCTATTGTCTTTGAT (sugars k3 d10 k3, PS)	39	–
CCATGCAAAAGCATTC (sugars k3 d10 k3, PS)	72	–
CCATCTAGAATTAAGG (sugars k3 d10 k3, PS)	0	–
AAGATATTGATATACG (sugars k3 d10 k3, PS)	45	–
CAAAATGGTGGCGAGG (sugars k3 d10 k3, PS)	10	–

Sequence	target mRNA inhibition (1 µM) [%]	further results
GTTAGTATAGTTATCT (sugars k3 d1 m1 d8 k3, PS)	52	–
TGTGGCATGGCTACAG (sugars k3 d1 m1 d8 k3, PS)	5	–
CATTCTGTGTTCTTGT (sugars k3 d10 k3, PS)	60	–
TCCAAGTAGGAGTAGA (sugars k3 d10 k3, PS)	24	–
TGTAAAGTTTGTTAGA (sugars k3 d10 k3, PS)	35	–
AGTAGTGTAAGCTGAG (sugars k3 d1 m1 d8 k3, PS)	68	–
AGCATAAGTTACCAGA (sugars k3 d10 k3, PS)	87	target mRNA inhibition (0.02 µM): 14%; target mRNA inhibition (0.078 µM): 31%; target mRNA inhibition (0.313 µM): 49%; target mRNA inhibition (1.25 µM): 73%; target mRNA inhibition (5 µM): 92%
AAATAGAGTCGGTCAC (sugars kkdddddddddkekek, PS)	50	–
GAGCATTCATCAGATG (sugars k3 d10 k3, PS)	64	–
GCATGGCTACAGATTG (sugars k3 d10 k3, PS)	56	–
TAAACATCTCTGGGAC (sugars k3 d1 m1 d8 k3, PS)	49	–
GTGGCATGGCTACAGA (sugars k3 d1 m1 d8 k3, PS)	49	–
GGTTCAGTCCTTGTGT (sugars k3 d10 k3, PS)	57	–
AGTTATTAGAAGTCAG (sugars k3 d1 m1 d8 k3, PS)	25	–
AAGAUACCCAGGTTGC (sugars k3 d1 m1 d8 k3, PS)	37	–
TGGTAAGGAGTAGTGG (sugars k3 d10 k3, PS)	34	–
ATCTTATAAGACTATA (sugars k3 d10 k3, PS)	32	–
TCCTTTGTATTTCGCT (sugars k3 d10 k3, PS)	68	–
TTCTCTTGACAATGGT (sugars k3 d10 k3, PS)	67	–
ATTAAGCTTAGTATAT (sugars k3 d10 k3, PS)	10	–
ATTCACATATGTGAAG (sugars k3 d10 k3, PS)	0	–
TAATATTGAGGCACTG (sugars k3 d10 k3, PS)	33	–
GGCAAAGATCTGGCCA (sugars k3 d10 k3, PS)	10	–
CATAACCTAATAACTA (sugars k3 d10 k3, PS)	10	–
TCTTAAGAGAAGGTGC (sugars k3 d10 k3, PS)	39	–

Sequence	target mRNA inhibition (1 µM) [%]	further results
GGGACCAAGGATATAT (sugars k3 d10 k3, PS)	17	–
ACTTGAACAGTCTTAA (sugars kkdddddddddkekek, PS)	60	–
GCTAAGTATACTTTCT (sugars k3 d10 k3, PS)	37	–
AGACAATGACATAGAC (sugars k3 d10 k3, PS)	14	–
GGTCCATTGTTTCTTA (sugars k3 d10 k3, PS)	36	–
CCCTTAGGAAAGCTCA (sugars k3 d10 k3, PS)	37	–
AATCATGGTGTGGAGG (sugars k3 d10 k3, PS)	11	–
ACATCTCTGGGACCAA (sugars k3 d10 k3, PS)	78	–
TAACCAATTATATGAG (sugars k3 d10 k3, PS)	0	–
CATAAGTAGTCTGCCT (sugars k3 d10 k3, PS)	31	–
GTCTGCCTGCCTATTC (sugars k3 d10 k3, PS)	53	–
CCTCGATCCTATATAC (sugars kkdddddddddkekek, PS)	3	–
CAGAAAGTTCATTCGA (sugars k3 d10 k3, PS)	67	–
GCACATCATGTTTTGC (sugars k3 d10 k3, PS)	44	–
TAATGGTAAACTGTAT (sugars k3 d10 k3, PS)	32	–
TCATAGTTCAAATTGG (sugars k3 d10 k3, PS)	47	–
TCTTGACAATGGTTGC (sugars kkdddddddddkekek, PS)	37	–
TTGAAGACAATACAGG (sugars k3 d10 k3, PS)	63	–
TTCTTGCAGAAATTCA (sugars k3 d10 k3, PS)	42	–
TGATAATTTGGTGTCA (sugars k3 d10 k3, PS)	3	–
GCAATAGTACTATAGT (sugars k3 d10 k3, PS)	39	–
GTTAACCTGCAGCAGA (sugars k3 d10 k3, PS)	51	–
CACCTGATTTAGAGAG (sugars k3 d10 k3, PS)	11	–
AGGCTGTAAGAGTCAG (sugars k3 d9 k3 e1, PS)	49	–
CTAGGATGATGTTCAT (sugars k3 d10 k3, PS)	47	–
